Experimental data reported in patent publication US6984640B1, “Antiparasitic artemisinin derivatives (endoperoxides)” (Bayer Aktiengesellschaft, priority 1998, dated 2006).

Legend:
Type in all cases: cell-based
[1] = tested on: Plasmodium falciparum W2 strain (chloroquine resistant); experiment: In vitro screening against Plasmodium falciparum, 3H-hypoxanthine incorporation, W2 strain; settings: for In vitro activity: (IC10) / In vitro activity: IC50 / In vitro activity: IC90: 66 hours incubation
Description: (§1) Two parasite strains—W2 resistant to chloroquine, and D6 sensitive to chloroquine but resistant to mefloquine were used. In Table IV below, the best compounds should show no cross resistance between the two strains.
(§2) The assay relies on incorporation of radiolabelled hypoxanthine by the parasite and inhibition of incorporation is attributed to activity of known or candidate antimalarial drugs. For each assay, proven antimalarials such as chloroquine, mefloquine, quinine, artemisinin and pyrimethamine were used as controls. The incubation period was 66 hours, and the starting parasitemia was 0.2% with 1% hematocrit. The medium was an RPMI-1640 culture with no folate or p-aminobenzoic acid. Albumax rather than 10% normal heat inactivated human plasma was used as, with Albumax, less protein binding is observed, and compounds elicit slightly higher activities in this model. If a compound was submitted with no prior knowledge of activity, it was dissolved directly in dimethyl sulphoxide (DMSO), and diluted 400 fold with complete culture medium. The unknown compound was started at a maximum concentration of 50,000 ng ml^−1 and sequentially diluted 2-fold for 11 times to give a concentration range of […]. These dilutions were performed automatically by a Biomek 1000 Liquid Handling System in 96-well microtiter plates. The diluted drugs were then transferred to test plates, 200 μl of parasitized erythrocytes were added, and incubated at 37° C. in a controlled environment of 5% CO2, 5% O2 and 90% N2. After 42 hours, 25 μl of ^3H-hypoxanthine was added, and the plates incubated for an additional 24 hours. After 66 hours, the plates were frozen at −70° C. to lyse the red cells, and then thawed and harvested onto glass fiber filter mats in a 96-well harvester. The filter mats were then counted in a scintillation counter. For each drug, the concentration response profile was determined and 50%, 90% and 10% inhibitory concentrations (IC50 IC90 and IC10) were determined by a non-linear logistic dose response analysis program.
(§3) A prescreen format can be used wherein a 3-dilution assay may be used to determine activity at high medium or low concentrations. The concentrations were selected as 50,000, 500 and 50 ng ml^−1. These were performed in duplicate on a 96-well format plate with 14 test compounds and one known (standard) compound per plate. The system was automated with a Biomek diluter for mixing and diluting the drugs, and adding drugs and parasites to a test plate. In the prescreen format, if the ANALYSIS FIELD (AP) has a “<”, then the compound was “very active” and the IC values are most likely to be below the last dilution value (in nanograms/ml), which is listed next to AF. In most cases, these compounds were run again at lower starting concentration to determine the true IC value. If the AF has a “>”, then the IC value is greater than the prescreen dilution value; thus “AF>250” means that the IC value is greater than 250 ng ml^−1 and no further screening is carried out. In such cases, values of 0.00 are entered for IC values.

[2] = tested on: Plasmodium falciparum D6 strain (chloroquine sensitive); experiment: In vitro screening against Plasmodium falciparum, 3H-hypoxanthine incorporation, D6 strain; settings: 66 hours incubation
Description: as §1, §2, §3

Neospora caninum = experiment: Screening against Neospora caninum cell cultures in vitro (VERO or ED host cells); parameters: key: 0 = no effect monolayer completely destroyed; 1 = weak effect monolayer partly destroyed, parasite clumps can be seen; 2 = full effect monolayer intact, no tachyzoites observable; T = cytotoxic cells are dead, lysed; settings: microscopic evaluation 4 days after treatment
Experimental: Screening was conducted in 96-well plates (Falcon 3872). A monolayer of host cells (VERO or ED) were placed on a cell culture plate. Non-infected mono-layers of cells were cultured in two 50 ml tissue culture bottles ([…] cell culture area). The cell layer was detached with trypsin-EDTA (5 ml. Gibco 45300-019) in a CO2-culture cupboard at 37° C. After 10 minutes, most of the cells were detached. The cells were transferred with a 5 ml pipette into a 50 ml centrifuge tube (Greiner, B769331) containing about 1 ml warmed fetal calf serum. After centrifugation for 5 minutes at 1500 rpm (Varifuge 3.0, Heraeus), the liquid was removed and the cell pellet suspended in RPMI medium (100 ml, 95% RPMI 1640, 2% FCS, 1% L-glutamine, 1% sodium hydrogen carbonate, 1% penicillin/streptomycin). The cell suspension was pipetted into six 96-well plates at 150 μl per well. The coated cell culture plates were placed in an incubation cupboard at 37° C. under 5% CO2 for 24 hours. The cells were then infected with Neospora caninum tachyzoites at a concentration of 48,000 tachyzoites per well. This was followed by incubation at 37° C. under 5% CO2 for 24 hours.
The test compounds (0.5-1.5 mg) were weighed into 1.5 ml eppendorf vessels and dissolved in 1 ml dimethyl sulphoxide, corresponding to a dilution of about 1×10^−3 g ml^−1. The medium used for further dilution consisted of 87% RPMI 1640, 10% FCS, 1% L-glutamine, 1% sodium hydrogen carbonate, 1% penicillin/streptomycin. In the first screening, concentrations of […], […] and 10^−7 g ml^−1 were used. The diluted preparations were then transferred to the cell culture plates at a volume of 150 μl per well after 24 hour infection with Neospora caninum. For the first row, untreated medium was used; this row contained infected and uninfected cells as controls. The cell plate was incubated at 37° C. under 5% CO2 for 5 days. Microscopic evaluation was conducted 4 days after treatment and 5 days after infection at a magnification of 25×10 in an inverse microscope according to the following evaluation scheme.

Eimeria tenella = experiment: Screening against Eimeria tenella cell cultures in vitro (chick kidney cells); parameters: key: 3 = very active no intact parasites/well; 2 = active 1-6 parasites per well; 1 = weakly active up to 1 intact schizont/optical field of vision; 0 = inactive >1 intact schizont/optical field of vision; T = cytotoxic host cells are dead; settings: day 5 post infection
Experimental: Cells from kidneys of 19 day old chicks are cultured as monolayers in 96-well plates (Falcon 3872) in a medium of Hanks lactalbumine hydrolysate, 5% fetal calf serum, 1% glutamine and 1% non-essential amino acids. After two days at 42° C. under 5% CO2, the culture was infected with excised sporozoites of Eimeria tenella at about […] per well. Test compounds were dissolved in DKSO and diluted with culture medium to a maximum end concentration of 10 μg ml^−1. The dilution steps were 1:10. On day 5 post infection, the cultures were evaluated under a microscope at 100-fold magnification and the condition of the host cells and the amount of intact schizonts and free merozoites was determined.

| SMILES | In vitro activity: (IC10) [1] | In vitro activity: IC50 [1] | In vitro activity: IC90 [1] | In vitro activity: (IC10) [2] | In vitro activity: IC50 [2] | In vitro activity: IC90 [2] | Evaluation of effect against Neospora caninum (Neospora caninum; Dose 10^−5 g/ml) | Effectiveness rating against Eimeria tenella (Eimeria tenella; Dose 10^−5 g/ml) | Effectiveness rating against Eimeria tenella (Eimeria tenella; Dose 10^−6 g/ml) | Effectiveness rating against Eimeria tenella (Eimeria tenella; Dose 10^−7 g/ml) | Evaluation of effect against Neospora caninum (Neospora caninum; Dose 10^−6 g/ml) | Evaluation of effect against Neospora caninum (Neospora caninum; Dose 10^−7 g/ml) | Effectiveness rating against Eimeria tenella (Eimeria tenella; Dose 10^−8 g/ml) | Evaluation of effect against Neospora caninum (Neospora caninum; Dose 10^−8 g/ml) | ANALYSIS FIELD (AF): bound on the IC values in prescreen format ([1]; prescreen 3-dilution assay, 0.00 entered for IC values) |
| --- | --- | --- | --- | --- | --- | --- | --- | --- | --- | --- | --- | --- | --- | --- | --- |
| COc1cc(OC)c(C2OC3OC4(C)CCC5C(C)CCC(C2C)C35OO4)c(OC)c1 (mixture of isomers) [Example 12] | 0.47 ng/mL | 0.78 ng/mL | 1.32 ng/mL | 0.35 ng/mL | 0.77 ng/mL | 1.70 ng/mL | – | – | – | – | – | – | – | – | – |
| CC1CCC2[C@@H](C)C(=O)OC3O[C@]4(C)CCC1C32OO4 (stereo partly shown) [Artemisinin, artemisinin] | – | – | – | – | – | – | 0 | 2 (2 = active 1-6 parasites per well) | 1 (1 = weakly active up to 1 intact schizont/optical field of vision) | 0 (0 = inactive >1 intact schizont/optical field of vision) | – | – | – | – | – |
| CC1CCC2C(C)C(F)OC3OC4(C)CCC1C32OO4 (stereo not drawn) [Example 1, 10β-fluoro-10-deoxo-10-dihydroartemisinin] | – | 0.69 ng/mL | 0.98 ng/mL | – | 0.74 ng/mL | 1.36 ng/mL | – | – | – | – | – | – | – | – | – |
| CC1CCC2C(C)C(c3ccccc3)OC3OC4(C)CCC1C32OO4 (stereo not drawn) [Example 2, 10β-phenyl-10-deoxo-10-dihydroartemisinin] | 0.19 ng/mL | 0.31 ng/mL | 0.52 ng/mL | 0.53 ng/mL | 0.73 ng/mL | 0.99 ng/mL | 1 | 2 (2 = active 1-6 parasites per well) | 2 (2 = active 1-6 parasites per well) | 1 (1 = weakly active up to 1 intact schizont/optical field of vision) | 1 | 0 | 0 (0 = inactive >1 intact schizont/optical field of vision) | – | – |
| COc1ccc(C2O[C@@H]3O[C@@]4(C)CC[C@H]5[C@H](C)CC[C@@H]([C@H]2C)[C@@]35OO4)c(OC)c1 (stereo partly shown) [Example 4, 10-(2′,4′-dimethoxyphenyl)-10-deoxo-10-dihydroartemisinin] | 0.40 ng/mL | 0.84 ng/mL | 1.74 ng/mL | 0.52 ng/mL | 1.05 ng/mL | 2.10 ng/mL | – | – | – | – | – | – | – | – | – |
| CC1CCC2C(C)C(Nc3ccccc3)OC3OC4(C)CCC1C32OO4 (stereo not shown) [Example 15] | 0.52 ng/mL | 0.66 ng/mL | 0.84 ng/mL | 0.48 ng/mL | 0.61 ng/mL | 0.78 ng/mL | – | 2 (2 = active 1-6 parasites per well) | 2 (2 = active 1-6 parasites per well) | 1 (1 = weakly active up to 1 intact schizont/optical field of vision) | 1 | 1 | 0 (0 = inactive >1 intact schizont/optical field of vision) | 0 | – |
| CC1CCC2C(C)C(Nc3ccc(F)cc3)OC3OC4(C)CCC1C32OO4 (stereo not shown) [Example 16] | 0.49 ng/mL | 0.64 ng/mL | 0.84 ng/mL | 0.48 ng/mL | 0.61 ng/mL | 0.78 ng/mL | – | – | – | – | – | – | – | – | – |
| CC1CCC2C(C)C(NCc3ccccc3)OC3OC4(C)CCC1C32OO4 (stereo not shown) [Example 21] | – | – | – | 0.79 ng/mL | 1.77 ng/mL | 3.96 ng/mL | 2 | – | 0 (0 = inactive >1 intact schizont/optical field of vision) | – | 0 | – | – | – | – |
| CCN(CC)C1OC2OC3(C)CCC4C(C)CCC(C1C)C24OO3 (stereo not shown) [Example 26] | – | – | – | 5.05 ng/mL | 9.05 ng/mL | 16.24 ng/mL | – | – | – | – | – | – | – | – | 0.00; 0.00 AF < 4 ng/ml |
| CC(NC1OC2OC3(C)CCC4C(C)CCC(C1C)C24OO3)c1ccccc1 (stereo not shown) [Example 30] | – | – | – | 6.74 ng/mL | 11.20 ng/mL | 18.61 ng/mL | 1 | T | 2 (2 = active 1-6 parasites per well) | 0 (0 = inactive >1 intact schizont/optical field of vision) | 0 | – | – | – | – |
| CC1CCC2C(C)C(c3ccc(Br)cc3)OC3OC4(C)CCC1C32OO4 (stereo not shown) [Example 38] | 0.55 ng/mL | 1.23 ng/mL | 2.76 ng/mL | 0.22 ng/mL | 0.90 ng/mL | 3.69 ng/mL | – | – | – | – | – | – | – | – | – |
| COc1cc(OC)c(C2OC3OC4(C)CCC5C(C)CCC(C2C)C35OO4)c(OC)c1 (stereo not shown) [Example 44] | 0.13 ng/mL | 0.3318 ng/mL | 0.8168 ng/mL | 0.29 ng/mL | 0.69 ng/mL | 1.67 ng/mL | – | – | – | – | – | – | – | – | – |
